Source: ChEMBL document CHEMBL1201862, “PubChem BioAssay data set” (2004)
The source made the active and inactive calls.

Tests used:
[1] = target: Kallikrein-7 (Homo sapiens, UniProt P49862); test: Fluorescence Intensity-based biochemical primary high throughput dose response assay to identify activators of kallikrein-7 (K7) zymogen.
[2] = ADAM10 protease inhibitors, dose response, selectivity assay for ADAM17 exosite inhibitor project, biochemical, FRET peptide substrate, recombinant human ADAM10 (AID 743259);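 note: ADAM10 enzyme cleaving a FRET peptide substrate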
[3] = target: T1, Disintegrin and metalloproteinase domain-containing protein 17 (Homo sapiens, UniProt P78536); test: exosite inhibitors of ADAM17, dose response, biochemical (AID 743260)
T1 sequence (P78536 whole entry, the tested form may be a part): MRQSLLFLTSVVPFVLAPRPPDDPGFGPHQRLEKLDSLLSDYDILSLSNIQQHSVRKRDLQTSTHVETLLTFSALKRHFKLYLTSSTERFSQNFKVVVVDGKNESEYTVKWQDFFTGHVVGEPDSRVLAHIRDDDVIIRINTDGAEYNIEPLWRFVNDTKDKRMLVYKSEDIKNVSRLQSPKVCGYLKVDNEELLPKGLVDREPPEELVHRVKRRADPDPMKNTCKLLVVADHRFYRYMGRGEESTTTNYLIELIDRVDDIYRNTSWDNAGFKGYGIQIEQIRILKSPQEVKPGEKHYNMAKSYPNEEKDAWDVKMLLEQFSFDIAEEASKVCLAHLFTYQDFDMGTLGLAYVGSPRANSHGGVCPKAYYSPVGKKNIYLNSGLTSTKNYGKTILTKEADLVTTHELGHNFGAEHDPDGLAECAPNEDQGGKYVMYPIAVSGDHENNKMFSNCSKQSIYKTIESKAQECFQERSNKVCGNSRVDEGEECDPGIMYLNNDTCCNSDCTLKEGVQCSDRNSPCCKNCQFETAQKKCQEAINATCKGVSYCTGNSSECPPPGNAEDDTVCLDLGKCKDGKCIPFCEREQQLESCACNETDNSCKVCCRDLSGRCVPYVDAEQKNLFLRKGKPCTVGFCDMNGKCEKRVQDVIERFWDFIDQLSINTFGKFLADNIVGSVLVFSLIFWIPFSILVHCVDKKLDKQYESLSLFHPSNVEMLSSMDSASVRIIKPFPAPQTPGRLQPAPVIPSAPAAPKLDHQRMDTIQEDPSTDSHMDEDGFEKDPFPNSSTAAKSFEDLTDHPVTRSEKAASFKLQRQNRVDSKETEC

[4] = target: NAD-dependent protein deacylase sirtuin-5, mitochondrial (Homo sapiens, UniProt Q9NXA8); test: SIRT5 desuccinylase inhibitors, dose response, biochemical, fluorescence imaging, cherry-pick, set 5 (AID 720591);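 note: desuccinylation of succinyl peptide AMC substrate read as fluorescence after trypsin release; potency of inhibitors that lower fluorescence and may act on trypsin instead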
[5] = target: T1, Disintegrin and metalloproteinase domain-containing protein 17; test: ADAM17 protease inhibitors, dose response, counter-screen for ADAM10 exosite inhibitor project, biochemical, quenched FRET substrate (AID 743253)
[6] = ADAM10 inhibitors, peptide cleavage, dose response, biochemical, QFRET (AID 743254);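 note: ADAM10 enzyme with the DM2 quenched FRET peptide as substrate; EDANS fluorescence gain as the protease cuts the substrate; inhibitor potency against ADAM10 proteolytic activity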
[7] = BHK-21 cell cytotoxicity, cytotoxicity control for flavivirus guanylyltransferase probe project, secondary screen (AID 624078); type: functional
[8] = A375 melanoma cell viability loss, dose response, counter-screen for MITF inhibitor project, CellTiter-Glo luminescence, dry powder, set 4 (AID 624364); type: functional, cell-based; settings: A-375;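 note: A375 melanoma cells are MITF independent so this is a counter screen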
[9] = A375 melanoma cell cytotoxicity, dose response, counter-screen for MITF inhibitor project, CellTiter-Glo luminescence, dry powder, set 2 (AID 624489); type: functional, cell-based; settings: A-375;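 note: actives are compounds lowering A375 viability meaning general cytotoxicity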
[10] = A2780 ovarian cancer cell cytotoxicity, dose response, cytotoxicity control, plate reader, dry powder samples (AID 743046); type: functional, cell-based
[11] = IGROV1 ovarian cancer cell cytotoxicity, dose response, PAX8 inhibitor project, plate reader, dry powder samples (AID 743043); type: functional, cell-based; settings: IGROV-1
[12] = IOSE-T80 ovarian epithelial cell cytotoxicity, dose response, cytotoxicity control for PAX8 inhibitor project, plate reader, dry powder samples (AID 743045); type: functional, cell-based
[13] = cytotoxicity in OVCAR8 ovarian cancer cells, dose response, PAX8 project, cell-based, plate reader, dry powder samples (AID 743197); type: functional; settings: OVCAR-8
[14] = NIH:OVCAR-3 ovarian cancer cell cytotoxicity, dose response, PAX8 inhibitor project, plate reader, dry powder samples (AID 743044); type: functional, cell-based
[15] = target: Paired box protein Pax-8 (Homo sapiens, UniProt Q06710); test: inhibitors of PAX8-driven TPO luciferase reporter, dose response, RMG-I cells, cherry-pick (AID 687027); type: functional, cell-based;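 note: luciferase reporter driven by Pax8 target thyroperoxidase promoter measured by SteadyGlo luminescence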
Sequence of Paired box protein Pax-8 (Q06710 whole entry): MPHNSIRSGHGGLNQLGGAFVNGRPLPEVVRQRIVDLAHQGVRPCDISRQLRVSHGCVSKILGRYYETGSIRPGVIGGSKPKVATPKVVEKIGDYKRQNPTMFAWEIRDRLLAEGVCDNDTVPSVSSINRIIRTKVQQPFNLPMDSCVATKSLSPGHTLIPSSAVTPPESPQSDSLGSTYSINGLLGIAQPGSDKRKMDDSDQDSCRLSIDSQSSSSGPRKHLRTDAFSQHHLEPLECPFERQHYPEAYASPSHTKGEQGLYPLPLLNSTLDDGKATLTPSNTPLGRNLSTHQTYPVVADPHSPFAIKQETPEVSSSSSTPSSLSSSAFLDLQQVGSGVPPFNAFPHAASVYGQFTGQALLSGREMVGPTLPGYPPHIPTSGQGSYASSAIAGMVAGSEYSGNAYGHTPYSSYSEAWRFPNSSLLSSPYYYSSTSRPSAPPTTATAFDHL

[16] = system: H9c2; test: cells; type: functional, cell-based; settings: Rattus norvegicus, H9c2, Myocardium;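 note: confirmatory concentration-response retest of ultra-high-throughput screening hits for modulation of myocardial damage; cell death induced by hydrogen peroxide oxidative stress; compound pretreatment for 60 min then peroxide exposure for 2 h; potency is for protecting the cells against peroxide damage rather than for killing them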
[17] = target: Endoplasmic reticulum aminopeptidase 1 (Homo sapiens, UniProt Q9NZ08); test: ERAP1 aminopeptidase inhibitors, dose response, biochemical, cherry-pick, set 2, plate reader (AID 743314)
Sequence of Endoplasmic reticulum aminopeptidase 1 (Q9NZ08 whole entry): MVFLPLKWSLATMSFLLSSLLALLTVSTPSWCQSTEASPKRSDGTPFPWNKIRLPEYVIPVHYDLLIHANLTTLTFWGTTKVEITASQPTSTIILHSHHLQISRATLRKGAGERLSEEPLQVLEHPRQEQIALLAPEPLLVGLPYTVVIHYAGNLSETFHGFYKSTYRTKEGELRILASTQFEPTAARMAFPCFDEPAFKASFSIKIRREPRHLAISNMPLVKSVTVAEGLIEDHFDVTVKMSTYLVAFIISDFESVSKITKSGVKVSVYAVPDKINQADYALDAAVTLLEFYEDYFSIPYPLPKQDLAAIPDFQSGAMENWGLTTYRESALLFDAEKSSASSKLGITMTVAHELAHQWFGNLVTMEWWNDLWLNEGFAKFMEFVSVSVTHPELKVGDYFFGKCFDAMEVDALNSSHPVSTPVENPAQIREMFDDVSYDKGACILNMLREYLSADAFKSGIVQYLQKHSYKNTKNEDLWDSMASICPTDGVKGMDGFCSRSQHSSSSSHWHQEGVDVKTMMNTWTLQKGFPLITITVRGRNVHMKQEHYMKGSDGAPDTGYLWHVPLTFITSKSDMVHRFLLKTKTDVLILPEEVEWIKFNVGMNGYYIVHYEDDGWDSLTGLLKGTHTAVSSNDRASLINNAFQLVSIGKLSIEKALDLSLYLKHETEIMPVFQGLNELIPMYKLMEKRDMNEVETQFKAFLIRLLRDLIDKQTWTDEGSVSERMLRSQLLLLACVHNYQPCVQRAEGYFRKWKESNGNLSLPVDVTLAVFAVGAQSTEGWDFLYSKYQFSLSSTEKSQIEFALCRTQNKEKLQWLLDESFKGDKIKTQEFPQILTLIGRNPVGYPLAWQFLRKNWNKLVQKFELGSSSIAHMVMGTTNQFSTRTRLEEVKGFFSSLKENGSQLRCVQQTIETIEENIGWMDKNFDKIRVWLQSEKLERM

[18] = MITF: Counter assay: A375 proliferation Measured in Cell-Based System Using Plate Reader - 2084-03_Inhibitor_Dose_DryPowder_Activity_Set8.; type: functional; settings: A-375
[19] = MITF Orthogonal Assay: SK-MEL-5 CTG Assay Measured in Cell-Based System Using Plate Reader - 2084-02_Inhibitor_Dose_DryPowder_Activity_Set7.; type: functional
[20] = TRPM1 promoter luciferase reporter signal decrease, dose response, MITF inhibitor project, cell-based, SK-MEL-5, dry powder, set 8 (AID 624430); type: functional
[21] = target: 1-phosphatidylinositol 4,5-bisphosphate phosphodiesterase beta-3 (Homo sapiens, UniProt Q01970); test: Fluorescence-based biochemical high throughput dose response assay to identify inhibitors of phospholipase C isozymes (PLC-B3).
[22] = target: 1-phosphatidylinositol 4,5-bisphosphate phosphodiesterase gamma-1 (Homo sapiens, UniProt P19174); test: Counterscreen for inhibitors of phospholipase C isozymes (PLC-B3): Fluorescence-based biochemical high throughput dose response assay to identify inhibitors of phospholipase C isozymes (PLC-gamma1).
Sequence of 1-phosphatidylinositol 4,5-bisphosphate phosphodiesterase gamma-1 (P19174 whole entry): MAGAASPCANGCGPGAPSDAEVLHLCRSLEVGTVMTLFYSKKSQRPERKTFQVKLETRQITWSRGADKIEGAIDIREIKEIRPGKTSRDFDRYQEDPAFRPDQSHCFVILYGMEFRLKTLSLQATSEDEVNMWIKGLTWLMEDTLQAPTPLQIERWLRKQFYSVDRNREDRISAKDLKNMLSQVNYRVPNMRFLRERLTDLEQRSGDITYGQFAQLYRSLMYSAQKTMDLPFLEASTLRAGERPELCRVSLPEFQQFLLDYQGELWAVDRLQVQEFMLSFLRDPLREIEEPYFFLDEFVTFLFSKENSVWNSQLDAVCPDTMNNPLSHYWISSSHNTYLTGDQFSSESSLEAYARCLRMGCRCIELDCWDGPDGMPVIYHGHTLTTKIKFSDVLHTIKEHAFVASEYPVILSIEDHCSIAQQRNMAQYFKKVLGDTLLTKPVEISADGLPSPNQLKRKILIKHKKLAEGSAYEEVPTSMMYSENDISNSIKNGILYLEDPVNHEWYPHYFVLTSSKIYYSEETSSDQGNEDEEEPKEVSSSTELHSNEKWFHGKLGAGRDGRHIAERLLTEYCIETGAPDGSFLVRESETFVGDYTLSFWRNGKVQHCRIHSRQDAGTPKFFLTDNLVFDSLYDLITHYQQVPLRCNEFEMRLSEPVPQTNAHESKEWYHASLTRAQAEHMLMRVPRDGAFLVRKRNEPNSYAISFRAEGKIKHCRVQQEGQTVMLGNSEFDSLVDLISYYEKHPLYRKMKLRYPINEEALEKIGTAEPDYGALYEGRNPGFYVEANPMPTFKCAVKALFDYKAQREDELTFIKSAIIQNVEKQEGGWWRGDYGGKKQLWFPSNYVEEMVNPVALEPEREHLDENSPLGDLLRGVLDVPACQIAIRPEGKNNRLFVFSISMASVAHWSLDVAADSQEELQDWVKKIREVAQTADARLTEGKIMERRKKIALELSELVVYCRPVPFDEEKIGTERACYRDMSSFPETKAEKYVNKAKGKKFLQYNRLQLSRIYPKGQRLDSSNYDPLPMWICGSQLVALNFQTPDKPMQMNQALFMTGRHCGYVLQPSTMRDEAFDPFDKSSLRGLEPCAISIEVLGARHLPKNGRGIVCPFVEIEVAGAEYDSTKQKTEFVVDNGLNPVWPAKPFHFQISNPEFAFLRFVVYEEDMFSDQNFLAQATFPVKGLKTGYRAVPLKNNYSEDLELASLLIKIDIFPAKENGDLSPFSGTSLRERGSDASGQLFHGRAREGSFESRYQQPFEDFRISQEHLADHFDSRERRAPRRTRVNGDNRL

[23] = Luminescence Cell-Based Dose Retest to Confirm Inhibitors of Cancer Stem Cells. [Related pubchem assays (depositor defined):AID2717, AID2721]; type: functional; settings: Homo sapiens
[24] = growth suppression of beta-catenin-knockout colon cells, dose response, cell-based, HCT116, human colon tumor (AID 1045); type: functional;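 note: HCT116 colon tumor cells with beta catenin knocked out; cells exposed to compound for 60 hours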
[25] = inhibitors of PGC1a acetylation in cells, dose response, cell-based, cherry-picked samples (AID 720514); type: functional;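 note: potency may reflect raised or lowered acetylation signal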
[26] = growth suppression of PTEN-null colon cells, dose response, cell-based, HCT116 PTEN knockout (AID 1047); type: functional;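 note: HCT116 colon tumor cells with PTEN knocked out; cells exposed to compound for 60 hours before readout; potency for loss of cell viability measured by luminescence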
[27] = HEp-2 cell cytotoxicity, dose response, cytotoxicity control for RSV inhibitor project, HTS (AID 2410); type: functional; settings: human respiratory syncytial virus
[28] = target: Nonstructural protein 1 (Influenza A virus, UniProt Q194T2); type: functional, Influenza A virus (A/California/07/2009(H1N1))
Sequence of Nonstructural protein 1 (Q194T2 whole entry, the tested form may be a part): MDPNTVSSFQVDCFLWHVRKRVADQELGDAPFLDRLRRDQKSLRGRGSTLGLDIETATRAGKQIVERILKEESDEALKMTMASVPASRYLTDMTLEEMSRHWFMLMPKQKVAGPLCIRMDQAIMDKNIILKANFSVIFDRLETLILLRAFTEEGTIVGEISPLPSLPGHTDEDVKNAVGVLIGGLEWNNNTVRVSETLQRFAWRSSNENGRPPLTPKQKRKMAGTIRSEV

[29] = target: T2, Fibrinogen beta chain (Homo sapiens, UniProt P02675); test: Fluorescence polarization-based biochemical high throughput dose response assay to identify inhibitors that disrupt the binding of a cyclic peptide (Tn6) to the fibrin proteolytic product D-Dimer and fragment E complex [DD(E )].
T2 sequence (P02675 whole entry, the tested form may be a part): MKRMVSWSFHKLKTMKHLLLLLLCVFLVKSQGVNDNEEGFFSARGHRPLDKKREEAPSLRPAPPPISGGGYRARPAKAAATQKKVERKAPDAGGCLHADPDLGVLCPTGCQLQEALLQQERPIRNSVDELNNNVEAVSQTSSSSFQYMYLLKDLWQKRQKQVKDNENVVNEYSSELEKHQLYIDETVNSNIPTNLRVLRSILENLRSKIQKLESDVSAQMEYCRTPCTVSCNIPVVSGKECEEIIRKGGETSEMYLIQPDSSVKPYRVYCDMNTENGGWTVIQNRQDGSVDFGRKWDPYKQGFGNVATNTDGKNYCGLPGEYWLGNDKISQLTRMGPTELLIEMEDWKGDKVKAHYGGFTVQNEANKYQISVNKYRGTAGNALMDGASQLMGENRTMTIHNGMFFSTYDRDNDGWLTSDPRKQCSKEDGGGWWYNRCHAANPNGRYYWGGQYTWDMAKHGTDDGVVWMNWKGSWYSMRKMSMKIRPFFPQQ

[30] = target: T2, Fibrinogen beta chain; test: Fluorescence polarization-based biochemical high throughput dose response assay to identify inhibitors that disrupt the binding of a cyclic peptide (Tn7) to the fibrin proteolytic product D-Dimer and fragment E complex [DD(E )].
[31] = target: T3, Protein skinhead-1 (Caenorhabditis elegans, UniProt P34707); type: functional
T3 sequence (P34707 whole entry): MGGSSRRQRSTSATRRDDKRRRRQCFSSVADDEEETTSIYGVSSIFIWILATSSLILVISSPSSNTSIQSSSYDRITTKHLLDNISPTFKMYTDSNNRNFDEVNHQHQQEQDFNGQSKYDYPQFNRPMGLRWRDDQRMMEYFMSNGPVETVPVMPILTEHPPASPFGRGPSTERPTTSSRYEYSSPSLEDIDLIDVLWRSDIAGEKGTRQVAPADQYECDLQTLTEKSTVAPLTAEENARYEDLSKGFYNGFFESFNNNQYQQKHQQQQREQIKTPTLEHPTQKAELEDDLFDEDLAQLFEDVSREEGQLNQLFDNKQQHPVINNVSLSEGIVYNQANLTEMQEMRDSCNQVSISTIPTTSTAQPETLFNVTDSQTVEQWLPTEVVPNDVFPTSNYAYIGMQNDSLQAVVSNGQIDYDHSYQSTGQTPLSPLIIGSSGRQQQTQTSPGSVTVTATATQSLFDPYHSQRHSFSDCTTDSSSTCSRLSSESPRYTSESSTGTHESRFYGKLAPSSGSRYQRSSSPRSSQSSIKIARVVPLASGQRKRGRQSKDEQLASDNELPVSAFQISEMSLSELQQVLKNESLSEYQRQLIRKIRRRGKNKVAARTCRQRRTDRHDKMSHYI

[32] = target: T4, Oxysterols receptor LXR-beta (Homo sapiens, UniProt P55055); type: functional, cell-based;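 note: agonist activity at LXR measured by a cell-based luminescence readout across a dose range, run as a counterscreen for daf-12 agonists; potency for activation of Gal4-LXR reporter so compounds are agonists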
T4 sequence (P55055 whole entry): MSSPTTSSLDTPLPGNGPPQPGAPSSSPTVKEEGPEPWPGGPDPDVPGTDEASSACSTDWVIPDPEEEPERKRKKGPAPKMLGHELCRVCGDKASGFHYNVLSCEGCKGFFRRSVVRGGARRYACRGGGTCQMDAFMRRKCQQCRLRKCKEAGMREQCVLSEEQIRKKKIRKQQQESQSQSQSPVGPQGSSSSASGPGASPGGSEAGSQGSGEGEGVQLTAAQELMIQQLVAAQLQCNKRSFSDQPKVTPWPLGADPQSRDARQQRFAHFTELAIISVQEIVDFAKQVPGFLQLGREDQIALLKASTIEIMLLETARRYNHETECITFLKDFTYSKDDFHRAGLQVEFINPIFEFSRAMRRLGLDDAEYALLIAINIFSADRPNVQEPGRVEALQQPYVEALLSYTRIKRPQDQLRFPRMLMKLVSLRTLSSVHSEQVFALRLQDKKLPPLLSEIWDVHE

[33] = HepG2 cell cytotoxicity, dose response, cytotoxicity control, ATP luminescence, cherry-pick, set 6 (AID 1053125); type: functional, cell-based
[34] = cells; settings: HEK293
[35] = cells
[36] = cells; settings: A549
[37] = target: T5, Caspase-6 (Homo sapiens, UniProt P55212); test: human caspase-6 inhibitors, dose response, biochemical, VEID-R110 fluorescence, cherry-pick (AID 720632)
T5 sequence (P55212 whole entry): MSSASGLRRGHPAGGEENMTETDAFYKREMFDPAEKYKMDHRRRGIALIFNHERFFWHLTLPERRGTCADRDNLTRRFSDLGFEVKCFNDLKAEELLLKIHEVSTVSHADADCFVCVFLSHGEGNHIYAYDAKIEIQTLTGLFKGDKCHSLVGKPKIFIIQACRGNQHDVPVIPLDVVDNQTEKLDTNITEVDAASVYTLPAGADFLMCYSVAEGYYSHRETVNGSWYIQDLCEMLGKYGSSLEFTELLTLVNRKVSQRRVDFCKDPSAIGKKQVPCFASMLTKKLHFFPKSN

[38] = target: T6, Caspase-7 (Homo sapiens, UniProt P55210); test: human caspase-7 inhibitors, dose response, selectivity assay for caspase-6 inhibitor project, biochemical, DEVD-R110 fluorescence, cherry-pick (AID 743295)
T6 sequence (P55210 whole entry): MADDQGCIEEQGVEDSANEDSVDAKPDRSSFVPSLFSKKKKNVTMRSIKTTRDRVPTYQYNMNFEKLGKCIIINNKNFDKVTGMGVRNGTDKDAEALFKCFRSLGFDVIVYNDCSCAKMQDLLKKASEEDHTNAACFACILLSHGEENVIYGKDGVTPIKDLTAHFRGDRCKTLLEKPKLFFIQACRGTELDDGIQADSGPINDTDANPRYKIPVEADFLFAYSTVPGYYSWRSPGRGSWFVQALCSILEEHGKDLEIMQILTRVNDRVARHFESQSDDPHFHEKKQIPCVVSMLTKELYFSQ

[39] = target: Caspase-9 (Homo sapiens, UniProt P55211); test: caspase-9 enzyme inhibition, dose response, selectivity assay for caspase-6 inhibitor project, biochemical, fluorescence, plate reader, cherry-picked samples (AID 743293)
Sequence of Caspase-9 (P55211 1-315 limits assumed): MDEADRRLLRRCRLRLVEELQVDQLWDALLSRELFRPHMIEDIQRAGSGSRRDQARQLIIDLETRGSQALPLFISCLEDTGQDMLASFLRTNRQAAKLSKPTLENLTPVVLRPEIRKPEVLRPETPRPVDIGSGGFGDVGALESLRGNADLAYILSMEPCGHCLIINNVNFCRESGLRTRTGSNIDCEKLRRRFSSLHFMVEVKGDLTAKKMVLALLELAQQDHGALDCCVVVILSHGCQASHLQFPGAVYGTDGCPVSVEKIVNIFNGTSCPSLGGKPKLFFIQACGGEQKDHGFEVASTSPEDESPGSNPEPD
Sequence of Caspase-9 (P55211 331-416 limits assumed): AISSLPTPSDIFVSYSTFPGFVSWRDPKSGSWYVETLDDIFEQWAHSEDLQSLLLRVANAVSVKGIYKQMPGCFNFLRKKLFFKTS

[40] = Luminescence-based cell-based high throughput dose response assay to identify activators of the DAF-12 from the parasite S. stercoralis (ssDAF-12).; type: functional
[41] = target: T4, Oxysterols receptor LXR-beta; test: LXR agonists, Gal4 luciferase reporter, dose response, counter-screen for ssDAF-12 agonist project, cell-based, luminescence, HEK293, S. stercoralis campaign (AID 720737); type: functional; settings: read-out: IC50 (the source's name)

Sequence of Kallikrein-7 (P49862 whole entry): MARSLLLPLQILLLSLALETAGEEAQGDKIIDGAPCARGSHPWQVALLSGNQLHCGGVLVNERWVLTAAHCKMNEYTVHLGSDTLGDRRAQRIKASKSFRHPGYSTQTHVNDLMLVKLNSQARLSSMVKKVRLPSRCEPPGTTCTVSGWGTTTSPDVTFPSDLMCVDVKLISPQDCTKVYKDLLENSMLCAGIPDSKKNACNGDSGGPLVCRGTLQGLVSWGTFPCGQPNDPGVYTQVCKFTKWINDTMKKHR

COc1ccc(/C=N/NC(=O)c2cc3c(ccc4ccccc43)o2)cc1OC
EC50 [1]: > 23.2 µM (inactive)

NS(=O)(=O)c1ccc(NCc2cc(Cl)ccc2OCc2ccc(F)cc2)cc1
IC50 [2]: > 23.2 µM (inactive)
IC50 [3]: > 69.5 µM (inactive)

O=C(O)c1ccc(S(=O)(=O)N(Cc2ccccc2)C2CCCCC2)cc1
AC50 [4]: > 30 µM (inactive)

CC(O)(c1ccc(F)c(F)c1)c1nc(-c2cc3ccccc3o2)cs1 (stereo unspecified)
IC50 [5]: > 69.5 µM (inactive)
IC50 [6]: 10.5 µM (inactive)

O=S(=O)(Nc1cc(Sc2ccccc2)c(O)c2ccccc12)c1ccc(F)cc1
CC50 [7]: 13.4 µM (active)

O=C1C(NS(=O)(=O)c2ccc(Br)cc2)=C(N2CCOCC2)C(=O)c2ccccc21
AC50 [8]: > 70 µM (inactive)
AC50 [9]: > 70 µM (inactive)

CS(=O)(=O)Nc1ccc2c(c1)[C@@H]1C[C@@H](CC(=O)NCc3ccc(Oc4ccccc4)cc3)O[C@@H](CO)[C@@H]1O2
AC50 [10]: 6.31 µM (active)
AC50 [11]: 6.7 µM (active)
AC50 [12]: 8.81 µM (active)
AC50 [13]: 11.3 µM (active)
AC50 [14]: 3.38 µM (active)
AC50 [15]: 1.95 µM (active)

CCCCc1cc(=O)oc2cc(O)ccc12
IC50 [16]: > 79 µM (inactive)
AC50 [17]: 7.25 µM (active)

CN1CCN(C2=C(Nc3cccc(Br)c3)C(=O)c3ccccc3C2=O)CC1
AC50 [18]: 39.3 µM (active)
AC50 [19]: 12.3 µM (active)
AC50 [20]: 4.79 µM (active)

Cc1cc(OCC(=O)OCC(=O)NCc2ccc3c(c2)OCO3)ccc1Cl
IC50 [21]: > 123 µM (inactive)
IC50 [22]: > 123 µM (inactive)

CCCOc1ccccc1-n1sc2c(c1=S)-c1cc(OC)cc3c1N(C(=O)C3=O)C2(C)C
AC50 [23]: 5.35 µM (active)
EC50 [24]: 22 µM (active)
AC50 [25]: 19.4 µM (active)
EC50 [26]: 19.9 µM (active)
CC50 [27]: 21.4 µM (active)
IC50 [28]: 9.35 µM (active)

O=C(CSc1nnc(SCc2cccc3ccccc23)s1)Nc1ccc(S(=O)(=O)Nc2nccs2)cc1
IC50 [29]: 15.6 µM (inactive)
IC50 [30]: > 83.3 µM (inactive)

Cc1cc2nn(-c3ccc(F)cc3)nc2cc1N
IC50 [31]: > 100 µM (inactive)
EC50 [32]: > 67.5 µM (inactive)

CCOc1ccc2nc(NCCN=C(S)NCCCN(C)C)c(C#N)cc2c1
AC50 [33]: > 52 µM (inactive)
AC50 [34]: > 52 µM (inactive)
AC50 [35]: > 32 µM (inactive)
AC50 [36]: > 52 µM (inactive)

O=C(C[C@@H]1C[C@H]2c3cc(NC(=O)NC4CCCCC4)ccc3O[C@H]2[C@H](CO)O1)NCc1ccccn1
AC50 [37]: 7.79 µM (active)
AC50 [38]: 29.7 µM (active)
AC50 [39]: 53.5 µM (active)

C=CCc1ccc(OCCCCOc2ccc(C(=O)O)cc2)c(OC)c1
IC50 [40]: > 67.5 µM (inactive)
EC50 [41]: > 67.5 µM (inactive)
